From ChEMBL document CHEMBL6153121, “Anti-Inflammatory Dimeric and Trimeric Flavonoids from the Roots ofPistacia weinmannifolia” (J Nat Prod, 2025)
Calls of active or inactive are those of the source. The calls are words filed in the database; no cut-off is given here.

Legend:
[1] = tested on: NCI-H292; assay: Antiinflammatory activity against PMA-stimulated human NCI-H292 cells assessed as reduction in MUC5AC secretion at 1 uM incubated for 24 hrs by ELISA; format: functional, cell-based
[2] = tested on: NCI-H292; assay: Antiinflammatory activity against PMA-stimulated human NCI-H292 cells assessed as reduction in IL-8 secretion at 1 uM incubated for 24 hrs by ELISA; format: functional, cell-based
[3] = tested on: NCI-H292; assay: Cytotoxicity against human NCI-H292 cells assessed as redcution in cell viability at 0.25 to 1 uM incubated for 24 hrs in presence of PMA by CCK-8 assay; format: toxicity, cell-based; conditions: nci-h292, 24 h, dose 0.25-1 µM

| Structure (SMILES) | Activity [1] | Activity [2] | Activity [3] |
| --- | --- | --- | --- |
| O=C(/C=C/c1ccc(Oc2cc(C(=O)/C=C/c3ccc(O)cc3)c(O)cc2O)cc1)c1ccc(O)cc1O | Active; Effectively Inhibited The Secretion | Active; Effectively Inhibited The Secretion | – |
| O=C(/C=C/c1ccc(Oc2c(O)ccc(C(=O)/C=C/c3ccc(O)cc3)c2O)cc1)c1ccc(O)cc1 | Active | inactive | – |
| O=C(/C=C/c1ccc(Oc2ccc([C@H]3Oc4cc(O)ccc4C(=O)[C@@H]3[C@@H]3C(=O)c4ccc(O)cc4O[C@H]3c3ccc(O)c(O)c3)cc2)cc1)c1ccc(O)cc1O | – | – | Toxic |
| O=C1C[C@@H](c2ccc(O)cc2)Oc2cc(Oc3ccc([C@@H]4[C@@H](C(=O)c5ccc(O)cc5O)[C@H](C(=O)c5ccc(O)cc5O)[C@H]4c4ccc(O)cc4)cc3O)ccc21 | Active | Active | – |
| O=C(/C=C/c1ccc(O)cc1)c1ccc2c(c1O)[C@H](C(=O)c1ccc(O)cc1O)[C@@H](c1ccc(O)cc1)O2 | Active | Active | – |
| O=C(/C=C/c1ccc(Oc2ccc(/C=C/C(=O)c3ccc(O)cc3O)cc2O)cc1)c1ccc(O)cc1O | Active; Effectively Inhibited The Secretion | Active; Effectively Inhibited The Secretion | – |
| O=C(/C=C/c1ccc(Oc2ccc([C@@H]3[C@@H](C(=O)c4ccc(O)cc4O)[C@H](C(=O)c4ccc(O)cc4O)[C@H]3c3ccc(O)cc3)cc2O)cc1)c1ccc(O)cc1O | Active; Effectively Inhibited The Secretion | Active; Effectively Inhibited The Secretion | – |
| O=C(/C=C/c1ccc(O)c(-c2cc(C(=O)/C=C/c3ccc(O)cc3)c(O)cc2O)c1)c1ccc(O)cc1O | Active | Active | – |
